According to ChEMBL document CHEMBL1201862, “PubChem BioAssay data set” (2004):
Calls of active or inactive are those of the source.

How the values were obtained:
[1] = biological target: T1, Aminopeptidase N (Plasmodium falciparum FcB1/Columbia, UniProt O96935); assay: P. falciparum M1AAP inhibitors, biochemical, fluorogenic H-Leu-NHMec substrate, 1536-well (AID 1445); parameters: species or system Plasmodium falciparum 3D7, 3D7
T1 sequence (O96935 whole entry): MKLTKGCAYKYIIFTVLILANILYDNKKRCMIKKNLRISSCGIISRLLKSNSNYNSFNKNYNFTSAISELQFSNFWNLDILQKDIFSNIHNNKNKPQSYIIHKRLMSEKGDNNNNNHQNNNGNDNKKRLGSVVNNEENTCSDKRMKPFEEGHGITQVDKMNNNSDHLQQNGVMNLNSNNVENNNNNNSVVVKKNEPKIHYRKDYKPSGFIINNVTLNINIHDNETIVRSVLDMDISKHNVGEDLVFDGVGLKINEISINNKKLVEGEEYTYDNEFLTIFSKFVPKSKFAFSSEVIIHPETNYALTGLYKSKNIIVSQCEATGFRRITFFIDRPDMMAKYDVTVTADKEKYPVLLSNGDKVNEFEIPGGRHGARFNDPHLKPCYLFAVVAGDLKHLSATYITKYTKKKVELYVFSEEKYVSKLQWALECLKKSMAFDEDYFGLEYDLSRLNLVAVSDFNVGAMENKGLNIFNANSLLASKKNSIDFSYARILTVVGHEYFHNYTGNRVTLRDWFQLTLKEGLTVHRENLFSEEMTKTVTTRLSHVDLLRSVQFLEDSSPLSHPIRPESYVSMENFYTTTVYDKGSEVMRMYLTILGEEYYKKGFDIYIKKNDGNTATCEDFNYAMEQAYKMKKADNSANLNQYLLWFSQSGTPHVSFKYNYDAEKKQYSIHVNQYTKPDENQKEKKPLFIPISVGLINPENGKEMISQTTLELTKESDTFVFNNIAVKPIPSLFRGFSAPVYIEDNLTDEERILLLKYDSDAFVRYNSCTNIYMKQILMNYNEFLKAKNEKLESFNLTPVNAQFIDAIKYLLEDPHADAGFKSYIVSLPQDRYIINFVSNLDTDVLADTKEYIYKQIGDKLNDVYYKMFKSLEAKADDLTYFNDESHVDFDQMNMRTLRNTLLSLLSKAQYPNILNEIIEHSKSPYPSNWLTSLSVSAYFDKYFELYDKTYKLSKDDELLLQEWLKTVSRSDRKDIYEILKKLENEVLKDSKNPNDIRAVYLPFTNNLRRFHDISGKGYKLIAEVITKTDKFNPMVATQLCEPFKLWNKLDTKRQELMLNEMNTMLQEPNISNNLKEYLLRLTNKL

[2] = test system: HEK293; assay: inhibitors of LMP1-driven NF-kB reporter, dose response, cell-based, HEK293, luciferase, cherry-pick (AID 588343); assay type: functional; conditions: Homo sapiens
[3] = biological target: T2, Microphthalmia-associated transcription factor (Homo sapiens, UniProt O75030); assay: TRPM1 promoter luciferase signal decrease, dose response, MITF inhibitor project, cell-based, SK-MEL-5, cherry-picked, set 3 (AID 493073); assay type: functional
T2 sequence (O75030 whole entry): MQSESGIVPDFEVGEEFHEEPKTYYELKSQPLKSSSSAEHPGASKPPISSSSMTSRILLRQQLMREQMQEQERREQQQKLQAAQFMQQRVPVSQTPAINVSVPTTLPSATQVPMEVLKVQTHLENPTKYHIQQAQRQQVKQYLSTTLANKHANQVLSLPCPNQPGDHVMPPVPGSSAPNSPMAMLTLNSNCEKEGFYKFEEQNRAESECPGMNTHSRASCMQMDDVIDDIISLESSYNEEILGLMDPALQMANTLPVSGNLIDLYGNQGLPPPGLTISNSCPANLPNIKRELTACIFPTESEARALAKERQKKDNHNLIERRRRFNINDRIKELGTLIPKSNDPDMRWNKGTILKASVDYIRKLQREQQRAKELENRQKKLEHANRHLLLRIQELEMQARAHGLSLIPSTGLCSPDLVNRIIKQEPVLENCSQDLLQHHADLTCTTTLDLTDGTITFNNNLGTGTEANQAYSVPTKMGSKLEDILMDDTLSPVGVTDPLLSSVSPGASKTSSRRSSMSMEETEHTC

[4] = cells; assay type: functional
[5] = biological target: T3, Leucine aminopeptidase (Plasmodium falciparum 3D7, UniProt Q8IL11); assay: P. falciparum M17LAP inhibitors, primary screen, biochemical, fluorogenic H-Leu-NHMec substrate, 1536-well (AID 1619); assay type: functional
T3 sequence (Q8IL11 whole entry): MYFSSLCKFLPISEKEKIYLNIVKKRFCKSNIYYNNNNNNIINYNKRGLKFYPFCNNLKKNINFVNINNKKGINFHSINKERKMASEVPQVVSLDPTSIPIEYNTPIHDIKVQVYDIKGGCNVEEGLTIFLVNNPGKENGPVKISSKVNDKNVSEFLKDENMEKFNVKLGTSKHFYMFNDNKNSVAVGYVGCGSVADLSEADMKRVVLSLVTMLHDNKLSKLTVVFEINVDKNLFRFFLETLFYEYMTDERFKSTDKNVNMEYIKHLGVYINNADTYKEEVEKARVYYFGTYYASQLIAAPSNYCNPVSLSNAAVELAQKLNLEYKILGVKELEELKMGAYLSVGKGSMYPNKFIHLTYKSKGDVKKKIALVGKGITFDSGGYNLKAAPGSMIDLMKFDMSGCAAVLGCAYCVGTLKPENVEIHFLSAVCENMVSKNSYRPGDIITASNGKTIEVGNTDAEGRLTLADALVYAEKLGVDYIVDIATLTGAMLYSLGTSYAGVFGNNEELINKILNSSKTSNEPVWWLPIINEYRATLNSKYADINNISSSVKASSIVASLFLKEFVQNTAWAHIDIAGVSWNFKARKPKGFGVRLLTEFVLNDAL

[6] = biological target: Luciferin 4-monooxygenase (Photinus pyralis, UniProt P08659); assay: firefly luciferase enzyme inhibitors, dose response, biochemical, luminescence (AID 1891)
Chain of Luciferin 4-monooxygenase (P08659 whole entry): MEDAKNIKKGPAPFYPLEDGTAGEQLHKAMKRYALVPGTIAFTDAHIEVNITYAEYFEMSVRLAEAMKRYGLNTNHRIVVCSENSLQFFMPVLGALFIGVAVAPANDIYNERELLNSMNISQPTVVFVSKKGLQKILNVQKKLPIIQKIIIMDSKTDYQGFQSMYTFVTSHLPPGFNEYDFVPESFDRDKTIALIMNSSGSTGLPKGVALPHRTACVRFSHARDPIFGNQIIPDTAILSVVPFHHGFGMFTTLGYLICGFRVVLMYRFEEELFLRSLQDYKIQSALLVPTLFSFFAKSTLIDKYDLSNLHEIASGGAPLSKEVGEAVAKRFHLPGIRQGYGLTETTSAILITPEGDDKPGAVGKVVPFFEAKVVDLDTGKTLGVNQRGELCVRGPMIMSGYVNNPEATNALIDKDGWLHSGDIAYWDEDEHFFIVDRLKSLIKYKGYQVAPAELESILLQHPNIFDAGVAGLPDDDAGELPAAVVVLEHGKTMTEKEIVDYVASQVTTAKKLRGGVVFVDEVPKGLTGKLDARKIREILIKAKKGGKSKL

[7] = Luminescence Cell-Based Dose Confirmation HTS to Identify Inhibitors of Platelet Dense Granule Release. [Related pubchem assays: 1663 (Primary HTS), 1678 (Summary of Project)]; assay type: functional
[8] = inhibitors of firefly luciferase expression or activity, dose response, H4 neuroglioma cells, luminescence (AID 1990); assay type: functional, cell-based
[9] = Luminescence Cell-Based Dose Response HTS to Identify Inhibitors of 5'UTR Stem-Loop Driven Prion Protein mRNA Translation in H4 Neuroglioblastoma Cells. [Related pubchem assays: 1827 (Project Summary), 1813 (Primary HTS)]; assay type: functional
[10] = inhibitors of SNCA 5'UTR-driven reporter translation, confirmation, H4 neuroglioma cells, luminescence (AID 1988); assay type: functional, cell-based
[11] = biological target: Glucose-6-phosphate 1-dehydrogenase (Homo sapiens, UniProt P11413); assay: human G6PD enzyme inhibitors, dose response, selectivity assay for P. falciparum G6PD inhibitor project, biochemical, fluorescence (AID 504792); assay type: functional
Chain of Glucose-6-phosphate 1-dehydrogenase (P11413 whole entry): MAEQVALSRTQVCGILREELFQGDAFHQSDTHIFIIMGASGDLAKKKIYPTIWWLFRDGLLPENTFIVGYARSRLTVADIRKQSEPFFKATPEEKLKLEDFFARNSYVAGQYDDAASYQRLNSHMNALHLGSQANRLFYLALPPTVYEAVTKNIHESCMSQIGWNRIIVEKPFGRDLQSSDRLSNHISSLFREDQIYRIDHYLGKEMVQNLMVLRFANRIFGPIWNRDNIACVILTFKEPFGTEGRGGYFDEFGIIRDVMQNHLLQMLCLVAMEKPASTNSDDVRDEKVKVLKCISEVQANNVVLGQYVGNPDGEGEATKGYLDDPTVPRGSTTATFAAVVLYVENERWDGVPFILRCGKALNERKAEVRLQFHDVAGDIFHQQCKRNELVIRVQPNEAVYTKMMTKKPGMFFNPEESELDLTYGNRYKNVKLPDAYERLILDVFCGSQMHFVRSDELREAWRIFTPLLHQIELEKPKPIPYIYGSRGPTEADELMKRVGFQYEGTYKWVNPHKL

[12] = NIH-3T3 fibroblast cytotoxicity, dose response, cytotoxicity control, cell-based, fluorescence, Alamar Blue, secondary assay (AID 2327); assay type: functional;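 note: NIH-3T3 mouse fibroblasts cultured with fluconazole at 8 µg/mL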
[13] = cells; assay type: functional, cell-based
[14] = C. albicans growth with fluconazole, confirmation, fluorescence, retest (AID 2467); assay type: functional, cell-based
[15] = cells; assay type: functional, cell-based; remark: listed apart in the source
[16] = THP-1 cell cytotoxicity, dose response, cytotoxicity control for non-replicating M. tuberculosis project (AID 489025); assay type: functional
[17] = HepG2 cell cytotoxicity, dose response, cytotoxicity control for non-replicating M. tuberculosis project (AID 489018); assay type: functional; conditions: Mycobacterium tuberculosis
[18] = Vero E6 cell cytotoxicity, dose response, cytotoxicity control for non-replicating M. tuberculosis project, secondary assay (AID 492998); assay type: functional, VeroE6; conditions: Vero C1008
[19] = biological target: T4, Short transient receptor potential channel 4 (Mus musculus, UniProt Q9QUQ5); assay: mouse TRPC4 channel inhibitors, dose response, cell-based, HEK293 TRPC4/mu-opioid, Fluo-4 calcium (AID 434942); assay type: functional;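 note: potency of inhibitors blocking the TRPC4 calcium response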
T4 sequence (Q9QUQ5 whole entry): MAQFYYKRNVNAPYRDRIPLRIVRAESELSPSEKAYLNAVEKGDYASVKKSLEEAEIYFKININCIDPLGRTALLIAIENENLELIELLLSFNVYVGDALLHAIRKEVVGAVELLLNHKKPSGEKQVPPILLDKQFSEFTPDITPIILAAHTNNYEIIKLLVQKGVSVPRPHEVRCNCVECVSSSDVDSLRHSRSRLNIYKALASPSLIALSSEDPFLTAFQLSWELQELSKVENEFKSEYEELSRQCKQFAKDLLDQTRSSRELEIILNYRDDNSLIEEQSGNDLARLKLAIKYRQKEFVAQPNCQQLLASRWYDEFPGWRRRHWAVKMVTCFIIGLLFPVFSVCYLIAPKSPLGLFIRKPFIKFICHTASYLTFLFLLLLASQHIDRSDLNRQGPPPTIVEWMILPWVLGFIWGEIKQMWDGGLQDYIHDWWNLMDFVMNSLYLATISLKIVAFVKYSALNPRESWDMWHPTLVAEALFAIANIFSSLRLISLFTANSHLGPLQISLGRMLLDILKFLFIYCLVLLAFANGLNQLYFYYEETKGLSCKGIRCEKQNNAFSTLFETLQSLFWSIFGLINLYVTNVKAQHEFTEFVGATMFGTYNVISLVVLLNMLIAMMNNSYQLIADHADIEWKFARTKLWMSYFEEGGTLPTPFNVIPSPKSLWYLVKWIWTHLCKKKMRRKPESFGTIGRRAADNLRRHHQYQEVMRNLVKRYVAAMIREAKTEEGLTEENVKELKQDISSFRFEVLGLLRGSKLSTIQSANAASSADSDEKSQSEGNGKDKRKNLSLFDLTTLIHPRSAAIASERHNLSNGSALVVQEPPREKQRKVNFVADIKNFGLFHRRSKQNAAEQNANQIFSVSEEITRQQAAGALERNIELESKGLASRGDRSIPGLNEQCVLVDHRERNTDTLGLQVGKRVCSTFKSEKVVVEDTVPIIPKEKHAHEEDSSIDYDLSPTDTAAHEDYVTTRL

[20] = test system: INS1; assay: beta cell apoptosis inhibitors, cytokine rescue, dose response, luminescence, retest (AID 449756); assay type: functional, cell-based; conditions: Rattus norvegicus;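 note: cell death triggered by IL-1 beta plus TNF-alpha plus IFN-gamma mixture; protective hits raise ATP signal compared with cytokine alone wells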
[21] = biological target: T5, Fatty acid synthase (Homo sapiens, UniProt P49327); assay: FAS thioesterase domain inhibitors, dose response, biochemical, endpoint fluorescence intensity, uHTS hits (AID 624327); assay type: functional;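 note: fluorescence from hydrolysis of an O-methyl fluorescein acyl ester substrate by the enzyme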
T5 sequence (P49327 whole entry, the tested form may be a part): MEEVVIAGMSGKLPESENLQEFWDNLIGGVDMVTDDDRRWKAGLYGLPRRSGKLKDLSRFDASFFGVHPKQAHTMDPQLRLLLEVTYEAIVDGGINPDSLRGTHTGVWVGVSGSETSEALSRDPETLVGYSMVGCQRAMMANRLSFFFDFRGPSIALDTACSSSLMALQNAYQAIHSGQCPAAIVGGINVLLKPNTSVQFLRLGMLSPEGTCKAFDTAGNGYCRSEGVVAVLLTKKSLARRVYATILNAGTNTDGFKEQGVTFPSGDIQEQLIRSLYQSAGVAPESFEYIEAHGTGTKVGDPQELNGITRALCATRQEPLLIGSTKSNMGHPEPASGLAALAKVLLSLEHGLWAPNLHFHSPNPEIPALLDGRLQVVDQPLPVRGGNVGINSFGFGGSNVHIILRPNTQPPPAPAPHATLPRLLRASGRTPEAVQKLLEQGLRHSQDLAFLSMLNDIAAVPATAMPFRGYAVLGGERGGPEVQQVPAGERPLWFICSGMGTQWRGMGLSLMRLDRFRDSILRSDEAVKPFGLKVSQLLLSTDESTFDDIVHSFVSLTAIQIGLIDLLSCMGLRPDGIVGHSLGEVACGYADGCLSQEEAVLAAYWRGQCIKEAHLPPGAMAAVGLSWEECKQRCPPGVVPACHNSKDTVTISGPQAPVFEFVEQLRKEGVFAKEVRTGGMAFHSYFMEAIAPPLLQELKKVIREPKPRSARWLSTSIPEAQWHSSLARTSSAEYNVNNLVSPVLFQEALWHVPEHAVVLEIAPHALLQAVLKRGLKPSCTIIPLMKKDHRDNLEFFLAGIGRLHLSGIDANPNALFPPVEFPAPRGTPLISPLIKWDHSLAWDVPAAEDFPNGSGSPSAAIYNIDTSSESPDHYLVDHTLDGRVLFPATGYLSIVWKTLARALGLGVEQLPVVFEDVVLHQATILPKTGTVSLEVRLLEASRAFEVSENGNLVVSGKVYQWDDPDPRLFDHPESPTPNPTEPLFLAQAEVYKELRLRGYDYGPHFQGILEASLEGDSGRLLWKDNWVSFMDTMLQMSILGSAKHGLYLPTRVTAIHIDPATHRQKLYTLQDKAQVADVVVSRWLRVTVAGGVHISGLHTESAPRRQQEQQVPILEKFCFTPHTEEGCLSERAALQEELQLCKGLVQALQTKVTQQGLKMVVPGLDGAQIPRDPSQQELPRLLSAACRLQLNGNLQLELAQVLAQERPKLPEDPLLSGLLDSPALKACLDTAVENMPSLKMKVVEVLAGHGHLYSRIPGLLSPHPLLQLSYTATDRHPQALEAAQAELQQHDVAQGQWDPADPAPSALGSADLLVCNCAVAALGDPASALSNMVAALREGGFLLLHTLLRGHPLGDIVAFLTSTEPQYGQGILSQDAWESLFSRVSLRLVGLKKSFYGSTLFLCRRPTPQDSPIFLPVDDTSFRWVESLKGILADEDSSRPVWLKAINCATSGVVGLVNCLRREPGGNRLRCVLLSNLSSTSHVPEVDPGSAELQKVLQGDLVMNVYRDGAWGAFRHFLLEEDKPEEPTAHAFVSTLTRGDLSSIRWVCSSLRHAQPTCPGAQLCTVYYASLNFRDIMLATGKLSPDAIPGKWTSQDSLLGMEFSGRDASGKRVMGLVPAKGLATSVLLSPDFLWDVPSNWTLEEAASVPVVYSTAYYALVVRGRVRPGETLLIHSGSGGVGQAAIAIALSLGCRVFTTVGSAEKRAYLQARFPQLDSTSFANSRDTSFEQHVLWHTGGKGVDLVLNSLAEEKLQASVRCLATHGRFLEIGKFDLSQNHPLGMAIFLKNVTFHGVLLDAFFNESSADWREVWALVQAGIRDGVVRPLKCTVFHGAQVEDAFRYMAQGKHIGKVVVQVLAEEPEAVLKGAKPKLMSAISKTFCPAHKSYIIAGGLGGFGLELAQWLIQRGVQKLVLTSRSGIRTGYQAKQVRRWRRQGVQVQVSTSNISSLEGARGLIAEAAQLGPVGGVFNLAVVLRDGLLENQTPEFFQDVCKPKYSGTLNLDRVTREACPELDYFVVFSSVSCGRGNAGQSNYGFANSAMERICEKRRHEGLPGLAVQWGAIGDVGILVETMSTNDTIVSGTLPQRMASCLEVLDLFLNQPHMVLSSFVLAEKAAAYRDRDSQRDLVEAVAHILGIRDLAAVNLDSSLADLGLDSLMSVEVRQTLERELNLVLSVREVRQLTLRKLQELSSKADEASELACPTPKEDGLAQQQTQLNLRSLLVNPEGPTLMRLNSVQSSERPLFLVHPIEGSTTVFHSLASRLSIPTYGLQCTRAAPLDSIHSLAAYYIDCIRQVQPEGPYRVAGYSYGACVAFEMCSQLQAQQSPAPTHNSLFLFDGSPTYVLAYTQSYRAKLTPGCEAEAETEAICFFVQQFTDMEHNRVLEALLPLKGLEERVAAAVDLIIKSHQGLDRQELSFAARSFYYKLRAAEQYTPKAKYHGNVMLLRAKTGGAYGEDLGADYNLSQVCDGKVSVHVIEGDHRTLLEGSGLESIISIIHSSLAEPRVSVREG

[22] = biological target: T5, Fatty acid synthase; assay: FAS thioesterase domain inhibitors, dose response, biochemical, kinetic fluorescence intensity (AID 624326); assay type: functional;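 note: rate of fluorescence rise from hydrolysis of a fluorogenic O-methyl fluorescein ester substrate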

With `CCOc1cc(C2C3=C(CCCC3=O)OC3=C2C(=O)CCC3)cc([N+](=O)[O-])c1O` the IC50 [1] was 46.3 µM (active).
With `COc1ccccc1N1CCN(C(=O)CCC(=O)N2CCN(c3ccc(F)cc3)CC2)CC1` the AC50 [2] was 186 µM (active).
For `CCOc1ccc(NC(=O)CCC(=O)N/N=C/c2ccc([N+](=O)[O-])s2)cc1`, the AC50 [3] was 6.21 µM (active) and the IC50 [4] was 13.6 µM (active).
For `O=C(O)c1ccc(N=Nc2c(O)[nH]c3ccccc23)cc1`, the IC50 [5] was 84.3 µM (active), the EC50 [6] was 0.365 µM (active) and the EC50 [7] was 0.937 µM (active).
In the case of `CCN1CCCC1CNC(=O)c1ccc2c(c1)NC(=O)/C(=C\c1ccc(C)cc1)S2` (centres undefined), the EC50 [8] is reported as > 120 µM (not active), the EC50 [9] is reported as 16 µM (active) and the EC50 [10] is reported as > 120 µM (not active). The IC50 [11] was > 80 µM (inactive) and the AC50 [3] was 18.9 µM (active).
In the case of `O=C(N/N=C/c1cc(Br)ccc1O)c1ccccc1Cl`, the EC50 [12] is reported as > 160 µM (inactive), the IC50 [1] is reported as 8.06 µM (active) and the EC50 [13] is reported as 103 µM (active). For the same compound, the EC50 [14] was > 38 µM (not active), the EC50 [15] was > 350 µM (not active) and the CC50 [16] was 2.16 µM (active). The CC50 [17] was 8.07 µM (active), the CC50 [18] was 6.98 µM (active) and the AC50 [2] was 18.9 µM (active).
For `O=C(CN1CCN(Cc2ccccc2Cl)CC1)N=Nc1c(O)[nH]c2ccccc12`, the EC50 [19] was 0.376 µM (active).
In the case of `Cc1ccc(-c2c[n+](-c3ccc(SC(F)F)cc3)c3n2CCC3)cc1`, the AC50 [3] is reported as 1.64 µM (active) and the AC50 [20] is reported as 5.09 µM (active).
With `Cc1c(OCc2nn[nH]n2)ccc2c(-c3ccccc3)cc(=O)oc12` the IC50 [5] was 95.1 µM (active), the IC50 [21] was 1.59 µM (active) and the IC50 [22] was 1.61 µM (active).
With `CCCn1c(=N)n(CC(=O)C(C)(C)C)c2ccccc21` the EC50 [19] was 5.31 µM (active).
With `Cc1ccc(C)c2nc(O)c(CN(CC3CCCO3)C(S)=NCc3ccco3)cc12` (centres undefined) the EC50 [19] was 2.11 µM (active).
